Laboratory results from patent US20030211545A1, “Treatment of neuropsychiatric disease with protease and neurominidase inhibitors” (priority 2002, published 2003).
Entries after “also recorded” stand apart in the source; their conditions may differ. Where two headings read alike, the source gives them in different places.

Legend:
[1] = cited from earlier work
[2] = system: N-CAM 180; experiment: Incubation of human occipital cortex membrane and cytosolic fractions with protease inhibitors, N-CAM immunoblot; type: biochemical
Description: Fresh or frozen human brain cortex is dissected free of pia mater layer and any obvious blood vessels on the surface of the cortex. Pulverize the cortex in a sufficient quantity of liquid Nitrogen to a friable state with mortar and pestle, and accurately weigh out replicate samples of pulverized brain sample while keeping all vessels frozen in dry ice. Place the quantity of protease inhibitor or neuraminidase inhibitor in a PBS buffer of final pH 7.4 and maintain buffer on ice. Add the varying concentrations and combinations of protease inhibitors and/or neuraminidase inhibitors to separate pulverized brain in tubes in a final volume to yield a 20% weight of brain tissue/buffer volume. Allow the tubes to adjust to room temperature, and incubate at standard room temperature conditions for varying time points. The end-point of the assay is accomplished by addition of a 2× denaturing reducing sample buffer such as commercially available and previously published, and heat 3 min at 95 degrees C. Proceed to standard SDS-PAGE and immunoblot conditions to determine the breakdown products of parent molecule N-CAM. Use appropriate control incubations for temperature breakdown and buffer breakdown without protease inhibitors and/or neuraminidase inhibitors. The results can be quantitatively assessed by densitometry of immunoblots as previously published which yields a linear response within a loading range of proteins (˜1-100 μg of protein) depending on gel capacity used and concentrations of antibody and detection substrates which are empirically determined with standard methods. […]
Membrane and cytosolic fractions from human occipital cortex were incubated in the presence of protease inhibitors (10 μM final concentration) for varying lengths of time (typically 2, 4, 8, 16, 32, and 48 hrs at room temperature). An aliquot was analyzed by gel electrophoresis and immunoblotted with N-CAM 3732 antibody. […] The supernatant was labeled “membrane extract.” Protein content of the “cytosolic” and “membrane extract” sample was measured by the micro bicinchoninic acid method (Pierce, Ill.).

[3] = cited from earlier work; remark: listed apart in the source
[4] = system: N-CAM 180; experiment: Neuraminidase treatment of cytosolic and membrane brain extracts, N-CAM immunoblot; type: biochemical, human; details: 1.25 U/ml diluted enzyme, 18 hrs at 37° C., FIG. 7A
Protocol: Membrane “extracts” and “cytosolic” tissue extracts of human occipital cortex were prepared as described^8 with slight modifications^9. Frozen pulverized occipital cortex ˜50 g was suspended in 1000 ml of cold 0.05M Tris buffered saline (TBS, pH 7.4) with protease inhibitors: antipain (4 μg/ml), pepstatin A (2 μg/ml), aprotinin (2 μg/ml), leupeptin (2 μg/ml), and phenyl methyl sulfonyl fluoride (0.1 μg/ml). The solution was homogenized (Tissumizer; Tekmar, Cincinnati Ohio) for 5×10 sec pulses in a 4° C. ice bath and 30 sec cooling interval between pulses. The homogenate was centrifuged for 30 min at 42,000×g at 4° C. The clear supernatant with visible lipid removed was the “cytosolic” fraction. The pellet was resuspended and washed with cold TBS-protease inhibitor cocktail and re-centrifuged at 42,000×g for 30 min at 4° C. […] The supernatant was labeled “membrane extract.” Protein content of the “cytosolic” and “membrane” sample was measured by the micro bicinchoninic acid method (Pierce, Ill.).
Neuraminidase treatment of cytosolic and membrane brain extracts was accomplished by using neuraminidase enzyme from Vibrio cholerae (˜2.49 Units/ml, Fluka) in pH 5.5, 0.15M NaCl, 4 mM CaCl2 that was diluted with 50 mM sodium acetate, 4 mM CaCl2 and 0.2 mM EDTA, (pH 5.0; Buffer A) to 1.25 U/ml. […] Samples were analyzed by immunoblot for N-CAM with antibody 3732. […]

For `CC(C)CN(C[C@@H](O)[C@H](Cc1ccccc1)NC(=O)O[C@H]1CCOC1)S(=O)(=O)c1ccc(N)cc1` [Amprenavir], the “effect of a high-fat meal on absorption of the drug” value ([1]; high-fat meal) is given as “decrease the absorption”, the “severe or life-threatening rash” value ([1]; of recipients) is given as 1% and the “severe or life-threatening rash” value ([1]; of those who develop a rash) is given as 4%. The “severe and life-threatening skin reactions, including Stevens-Johnson syndrome” value ([1]; patients treated) was 1%.
For `CC(=O)N[C@@H](CC(C)C)C(=O)N[C@@H](CC(C)C)C(=O)N[C@H](C=O)CCCNC(=N)N` [leupeptin, Acetyl-leucyl-leucyl-arginal], the “activity in prevention of the breakdown of N-CAM 180 and subsequent release/accumulation of cN-CAM” value ([2]; 10 μM final concentration, compared with the other protease inhibitors assayed individually) was “most activity; also recorded: most effective”, the “inhibition of the increase in cN-CAM” value ([2]; 10 μM, room temperature, over the course of 48 hr, FIG. 8B and C) was “completely inhibited” and the “potency compared to the protease inhibitor cocktail” value ([2]; assayed in human brain) was “most potent”.
For Aprotinin, the tolerability in humans ([3]; clinical trials) is listed as “generally well tolerated” and the hypersensitivity reactions ([3]; patients receiving aprotinin for the first time) is listed as under 0.1 to 0.6%.
With “neuraminidase: neuraminidase enzyme from Vibrio cholerae (Fluka)” the “effect on N-CAM 180 in membrane extracts” value [4] was “removal of higher MW N-CAM 180”.
